According to article PMC12217469 (Nature Communications, 2025):
Residues, ends and D or L forms follow the SMILES beside them. *: point of attachment. Cbz = O=C(OCc1ccccc1)*

System: H2B
Experiment: Western blotting of H2B degradation, HeLa cells
Type: cell-based

## CC(C)C[C@@H](C=O)NC(=O)[C@H](CC(C)C)NC(=O)[C@H](CC(C)C)NC(=O)OCc1ccccc1 [MG132] (Cbz-Leu-Leu-Leu-aldehyde)
Coincubated or pretreated with MG132 10 μM
  effect on H2B degradation by Tz-MitoFlag (100 μM, 24 h) and TP2T (10 nM, 24 h): no degradation of H2B

## O=C1CCC(N2C(=O)c3ccccc3C2=O)C(=O)N1 (centres unmarked) [Thalidomide, thalidomide]
Coincubated or pretreated with Thalidomide 10 μM
  effect on H2B degradation by Tz-MitoFlag (100 μM, 24 h) and TP2T (10 nM, 24 h): inhibited
